Each structure is given as a SMILES string.
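Note: displacement of bound [3H]-SB269970 at the 5-HT7 receptor (origin unspecified), test concentration 10 µM, 60 min incubation.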

In this assay the target is 5-hydroxytryptamine receptor 7 (Homo sapiens) (UniProt P34969).
5-hydroxytryptamine receptor 7 (Homo sapiens), sequence (P34969 whole entry): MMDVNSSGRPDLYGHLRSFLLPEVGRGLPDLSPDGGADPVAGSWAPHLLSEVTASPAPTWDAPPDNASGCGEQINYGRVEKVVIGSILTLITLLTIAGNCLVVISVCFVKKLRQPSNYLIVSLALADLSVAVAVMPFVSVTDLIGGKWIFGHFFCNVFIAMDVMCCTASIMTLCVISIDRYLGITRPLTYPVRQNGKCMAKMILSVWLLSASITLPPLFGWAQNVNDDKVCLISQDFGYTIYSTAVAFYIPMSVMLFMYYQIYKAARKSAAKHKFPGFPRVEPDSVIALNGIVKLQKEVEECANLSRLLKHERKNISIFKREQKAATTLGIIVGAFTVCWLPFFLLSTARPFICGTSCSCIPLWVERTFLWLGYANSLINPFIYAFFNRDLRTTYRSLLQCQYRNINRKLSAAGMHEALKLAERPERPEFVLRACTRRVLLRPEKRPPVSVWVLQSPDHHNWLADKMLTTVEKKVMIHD
Description: Displacement of [3H]-SB269970 from 5-HT7 receptor (unknown origin) at 10 uM after 60 mins
For `COc1ccc2c(c1)CC(=O)N2C(C(=O)Nc1c(C)cccc1C)c1ccc(Cl)cc1` (configuration not stated), the log(activity) was found to be 1.25.
In the case of `COc1ccc2c(c1)CC(=O)N2C(C(=O)Nc1c(C)cccc1C)c1ccccc1` (configuration not stated), the log(activity) was 1.2.
The same measure for `COc1ccc2c(c1)CC(=O)N2C(C(=O)NC(C)(C)C)C(C)(C)C` (configuration not stated): 1.15; for `COc1ccc2c(c1)CC(=O)N2C(C(=O)NC1CCCCC1)c1ccc(Cl)cc1` (configuration not stated): 1.3.
The same measure for `COc1ccc2c(c1)CC(=O)N2C(C(=O)NC1CCCCC1)C(C)(C)C` (configuration not stated): 1.04.
The same measure for `COc1ccc2c(c1)CC(=O)N2C(C(=O)NC(C)(C)C)C(C)C` (configuration not stated): 1.48; for `COc1ccc2c(c1)CC(=O)N2C(C(=O)NC1CCCCC1)c1ccccc1` (configuration not stated): 1; for `COc1ccc2c(c1)CC(=O)N2C(C(=O)NC(C)(C)C)c1ccc(Cl)cc1` (configuration not stated): 1.2.
`COc1ccc2c(c1)CC(=O)N2C(C(=O)NC(C)(C)C)c1ccccc1` (configuration not stated) had a log(activity) of 1.18.
On to `COc1ccc2c(c1)CC(=O)N2C(C(=O)NC1CCCCC1)C(C)C` (configuration not stated), for which the log(activity) was determined as 1.2.
The molecule `COc1ccc2c(c1)CC(=O)N2C(C(=O)Nc1c(C)cccc1C)C(C)(C)C` (configuration not stated) registered a log(activity) of 0.954.
The same measure for `COc1ccc2c(c1)CC(=O)N2C(C(=O)Nc1c(C)cccc1C)C(C)C` (configuration not stated): 1.38.

The record behind these values is ChEMBL document CHEMBL3399943, “In vitro and in silico evaluation of twelve newly-synthesized 1-acetamide-5-methoxy-2-oxindoles as 5-Ht₇ receptor ligands” (Bioorg Med Chem Lett, 2015).
